Here are results for three compounds from article PMC7582707, “Synthesis and Properties of CurNQ for the Theranostic Application in Ovarian Cancer Intervention” (Molecules, 2020).

By IC50 is commonly meant the concentration at which inhibition is half-maximal. For orientation: viability means the share of living cells, or the viability signal relative to a control. In general, solubility refers to the dissolved amount per volume that the medium holds.

The structures appear in SMILES notation. In brackets after ≈: the same amount, converted by molar mass.

Data set [1] relates to NIH:3T3. As to the kind of experiment: Cell viability / cytotoxicity by high content imaging, healthy fibroblast control. Format: cell-based. As to conditions: Mus musculus, NIH3T3; NIH:3T3 healthy fibroblast, 24 h treatment. As for the experimental part:
(§1) The ovarian carcinoma cancer cell lines OVCAR-5 and SKOV3 were purchased from Fox Chase Cancer Facility, USA, Jerkitown, […]. The healthy fibroblast cell line NIH: 3T3 was utilized as a control. The cells were cultured in DMEM with the media being supplemented with 10% fetal bovine serum and 1% penicillin-streptomycin. Cells were incubated at 37 °C with 5% CO2. Upon the cells reaching 70–80% confluency, the cells were washed, and sub-cultured by harvesting using trypsin/EDTA.
(§2) Cells were grown until 80% confluency prior to utilization. Upon confluency, media was removed, and cells were washed twice in sterile PBS. Trypsin/EDTA was then added to the flasks and incubated at 37 °C for 5 min, allowing the cells to detach from the bottom of the flask. These cells were then collected and centrifuged. The pellet was resuspended, and the cells were counted using the trypan blue exclusion assay. A predetermined and equal number of cells were then added into each well of a 96-well plate. The cells were incubated overnight at 37 °C and at 5% CO2, allowing the cells to attach to the plates. […] Each treatment was performed in quintuplicate. Treatments occurred for 24 h. Subsequent to this time period, media was removed, and cells were fixed with 5% formaldehyde in PBS for 20 min. Next, cells were incubated for 15 min in a 1 µg/mL solution of DAPI. The plates were then washed several times with PBS to remove all residual DAPI and to reduce background fluorescence. All plates were stored in the dark. Plates were then run on the Logos Biosystem CELENA® X High Content Imaging System and analyses were performed using their proprietary software. IC50 values were calculated using a Prism Graph. Using the Logos Biosystem software, a pipeline was set up to determine the nuclei count, form factor, compactness and eccentricity. The following definitions were used:Eccentricity = ratio of the distance between the foci of the ellipse and its major axis length. Compactness = mean squared distance of the object’s pixels from the centroid divided by the area. Form Factor = 4 × π × Area/Perimeter2

Experiment in data set [2]: as above
It counts as cell-based. As to conditions: mouse, NIH:3T3 fibroblast cells. As for the experimental part: as §1, §2

Data set [3] has as its system SKOV3. As to the kind of experiment: Cell viability / cytotoxicity by high content imaging (DAPI nuclei count). It counts as cell-based. As to conditions: for IC50: Homo sapiens, SK-OV-3, SKOV3, 24 h treatment. As to the method: as §1, §2
Data set [4] deals with OVCAR-5. The description is as above. Format: cell-based. As to conditions: for IC50: OVCAR-5, 24 h treatment. As for the experimental part: as §1, §2
For data set [5], the system named is OVCAR-5 cells. Description: Nuclear morphology analysis by high content imaging (eccentricity, compactness, form factor). It counts as cell-based. As to conditions: 24 h; for form factor of nuclei: OVCAR-5, treatment greater than 50 µM. As to the method:
Cells were grown until 80% confluency prior to utilization. Upon confluency, media was removed, and cells were washed twice in sterile PBS. Trypsin/EDTA was then added to the flasks and incubated at 37 °C for 5 min, allowing the cells to detach from the bottom of the flask. These cells were then collected and centrifuged. The pellet was resuspended, and the cells were counted using the trypan blue exclusion assay. A predetermined and equal number of cells were then added into each well of a 96-well plate. The cells were incubated overnight at 37 °C and at 5% CO2, allowing the cells to attach to the plates. […] Each treatment was performed in quintuplicate. Treatments occurred for 24 h. Subsequent to this time period, media was removed, and cells were fixed with 5% formaldehyde in PBS for 20 min. Next, cells were incubated for 15 min in a 1 µg/mL solution of DAPI. The plates were then washed several times with PBS to remove all residual DAPI and to reduce background fluorescence.

The nature of data set [6]: Saturation solubility at different pH. Format: physicochemical. The source says:
Consequently, cancer targeting and specific release of an active agent at the tumor location is essential. Multiple tactics can be employed to achieve this. Herein, we exploited the acidification of the tumor microenvironment that accompanies malignant transformation for targeted detection and treatment. […] The slight acidification of the microenvironment surrounding a tumor is a hallmark feature of cancer and is termed the Warburg effect. Therefore, CurNQ can detect this change in pH associated with malignant transformation resulting from its pH specific solubility.
Figure 4 Fluorescence properties and pH specific properties of CurNQ. (A) Excitation and emission spectra of 1.5 µM solution of CurNQ. (B) Saturation solubility of a I.5 µM solution of CurNQ at pH 7.4 and 6.8.

For the compound `O=C1C=C(Br)C(=O)c2ccccc21` [BrNQ, 2-bromo-1,4-naphthoquinone, reference compound], the IC50 in data set [1] came out at 6.91 µM; in data set [3], 2.74 µM; in data set [4] (Homo sapiens) it was 4.85 µM. In data set [2] (NIH:3T3, lowest viability reached), this compound displayed a viability at 24 h below 15%. The viability at 20 µM in data set [4] (Homo sapiens, OVCAR-5, 24 h, read-out: cell viability) was below 10%. Besides, in data set [5], the “form factor of nuclei” value is given as “large increase”.

As for `COc1cc(/C=C/C(=O)CC(=O)/C=C/c2ccc(O)c(OC)c2)ccc1O` [CUR, diferuloylmethane, reference compound], the IC50 in data set [1] is 43.9 µM; in data set [3] it was 4.79 µM; in data set [4] (Homo sapiens), 9.64 µM.

As for `COc1cc(/C=C/C(=O)/C=C(O)/C=C/c2ccc(OC3=CC(=O)c4ccccc4C3=O)c(OC)c2)ccc1OC1=CC(=O)c2ccccc2C1=O` [CurNQ, 2,2′-((((1E,3Z,6E)-3-hydroxy-5-oxohepta-1,3,6-triene-1,7-diyl)bis(2-methoxy-4,1-phenylene))bis(oxy))bis(naphthalene-1,4-dione)], the IC50 was 65.5 µM in data set [1], 5.35 µM in data set [3] and 4.05 µM in data set [4] (Homo sapiens). The compound also had a viability at 24 h, 100 µM in data set [2] (NIH:3T3, 100 µM) of 44%. Besides, the cell viability result in data set [3] (SKOV3, in vitro cytotoxicity assay) is recorded as “below 50%”; in data set [4] (OVCAR-5, in vitro cytotoxicity assay) it was “below 50%”; in data set [4] (OVCAR-5, low concentrations, 24-h incubation), “below 40%”. For the same compound, the solubility in data set [6] (pH 6.8, aqueous buffer) turned out to be 20.7 µM (≈ 14.1 µg/mL); in data set [6] (pH 7.4, aqueous buffer) it was 11.2 µM (≈ 7.59 µg/mL). In addition, in data set [5] (OVCAR-5, 5-100 µM), the eccentricity of nuclei entry was “decreased in a dose-dependent manner”. Moreover, in data set [5], the “form factor of nuclei” value is given as “large increase”.
